Test results published in patent publication US20230227406A1, “MODULATORS OF E3 LIGASES” (Rekindle Therapeutics Inc., priority 2020, published 2023).

Experiments:
WWP1 [1] = target: T1, WWP1 (Homo sapiens, UniProt Q9H0M0); test: WWP1 MALDI-MS ubiquitin depletion assay (auto-ubiquitination); type: biochemical; conditions: 30 min pre-incubation, 90 minutes at 37° C.
T1 construct: purchased Ubiquigent 63-0034-025/30033/D
Experimental: Modulators designed in these ways were tested for HECT domain E3 ligase activity in a MALDI TOF assay of auto-ubiquitination (De Cesare et al, Cell Chem. Biol, 2018, 25, 1117)
UBE1 (E-305 Boston Biochem), UBE2D1 (E2-616 Boston Biochem), WWP1 (Ubiquigent #63-0034-025/30033/D), ubiquitin variants (Boston Biochem; ubiquitin: U-100H; WT-His6-Ub: U-530; K27R-His6-Ub:UM-HK27R; K27O-His6-Ub: UM-HK27O), alpha-cyano-4-hydroxycinnamic acid (CHCA), ATP, trifluoroacetic acid (Millipore Sigma, St. Louis, Mo.), 384-well round-bottom polypropylene microplates (781280, Greiner, Stonehouse, UK), 384-well Anchorchip MALDI targets and Peptide Calibration Standard II (Bruker Daltonics, Billerica, Mass.).
Protocol: The WWP1 ubiquitin depletion assay consists of recombinant UBE1 (5 nM), UBE2D1 conjugating enzyme (60 nM) and WWP1 ligase (50 nM) in a 10 mM HEPES pH 8.0 containing 0.1 mg/mL BSA, 10 mM MgCl2, 1 mM ATP and 1500 nM ubiquitin. Screening was performed by dispensing 3.5 μL of an enzyme solution containing UBE1 (10 nM), UBE2D1 (120 nM), WWP1 (100 nM), ubiquitin ([…]) to a 384-well round bottom polypropylene plates followed by incubation at 37° C. for 30 min. Reactions were initiated by the addition of 3.5 μL of an ATP solution (2000 nM) then incubated at 37° C. for 90 minutes before being quenched by the addition of 5 μL of a 50 mM EDTA solution containing 750 nM of a ubiquitin labelled with a histidine expression tag (m/z=9460.0 Da).
For detection of ubiquitin and the ubiquitin-6His internal standards, 50 nL of quenched reaction was dispensed onto a 384-well Anchorchip MALDI target plate (Bruker) pre-coated with a uniform layer of CHCA crystals immediately followed by 200 nL of a 3 mg/mL CHCA matrix solution (6 mg of CHCA dissolved in 0.7 mL of 100% ethanol and 1.3 mL of 0.31% aqueous TFA) using a TTP Labtech Mosquito liquid handler. Spectra for all reactions were acquired on a Bruker AutoFlex II in positive linear TOF mode from 1000 laser shots with ion suppression below 4000 Da. Spectra were analyzed for response using a centroid peak-fitting algorithm to quantify ubiquitin (m/z=8564.0 Da) and ubiquitin-6His (m/z=9460.0 Da) followed taking the ratio of intensities of ubiquitin and the ubiquitin-6His internal standard.
For compound screening, 140 nL of diluted compound in 100% DMSO was added to the WWP1 enzyme solution and pre-incubated for 30 minutes prior to reaction initiation.

DU-145 cells = test: Cellular proliferation assay (MTS) in DU-145 cells; type: cell-based; conditions: Homo sapiens, 72 hours of incubation, read-out: IC50 values for selected compounds in DU-145 cells
Experimental: DU-145 cells were trypsinized, counted via Trypan blue method and resuspended in DMEM complete medium (10% FBS with Pen-strep antibiotics) as described in Lieu et al, Mol Cel Endorinol, 87:19-28, 1992. Cells were seeded at a density of 100 cells per well in 1001 volume of 96-well cell culture plate and were incubated overnight at 37° C. in 5% CO2 incubator. The next day, cells were given fresh media and the test compounds were added in different concentrations. After 72 hours of incubation, MTS reagent (procured from Promega) was added to the cells and they were incubated for an additional 2 hours. Finally, the plates read in the absorbance mode at 490 nm using an ELISA plate reader (Perkin Elmer Victor X3 plate reader). The % growth values were calculated as [(T−T0)/(C−T0)]×100, where T0 is the OD of cells at the time of compound addition, C is the vehicle control, T is the OD of the test concentrations at 72 hours. Percentage inhibition values were calculated using 100−([(T−T0)/(C−T0)]×100). IC50 values were calculated in graph pad prism software using dose response curve nonlinear regression method.

[2] = tested on: phosphorylated AKT and phosphorylated Ribosomal Protein S6; test: Western blot of AKT and S6 phosphorylation in Hs578T cells; type: cell-based, human; conditions: 48 hours, indicated concentrations
Experimental: Hs578T cells (human triple negative breast cancer) were treated with the indicated concentration of COMPOUND 1 for 48 hours prior to harvesting. The “0” concentration is DMSO only (0.5%, same as was used for compound doses). […] Analysis occurred via western blot using the indicated antibodies. Quantification by densitometry of the bands from the western blot are presented for phosphorylated AKT/Total AKT and phosphorylated Ribosomal Protein S6/Total Ribosomal Protein S6. COMPOUND 1 reduced both AKT and S6 phosphorylation relative to their respective total protein levels.
(§1) The data presented here are consistent with the previous replicate in Hs578T cells, and the observation is preserved in another TNBC cell line, BT-20. COMPOUND 1 reduces the phospho-AKT/vinculin loading control and phospho-S6/total S6 ratios. Methods are the same as the previous replicate, using the indicated doses.
Hs578T cells (human triple negative breast cancer) were treated with the indicated concentration of COMPOUND 6 for 48 hours prior to harvesting. The “0” concentration is DMSO only (0.5%, same as was used for compound doses). […] Analysis occurred via western blot using the indicated antibodies.
The data presented here are consistent with the previous replicate in Hs578T cells. COMPOUND 6 reduces the phospho-AKT/vinculin loading control and phospho-S6/total S6 ratios. Methods are the same as the previous replicate, using the indicated doses.
Hs578T cells (human triple negative breast cancer) were treated with the indicated concentration of COMPOUND 7 for 48 hours before harvesting. The “0” concentration is DMSO only (0.5%, same as was used for compound doses). […] Analysis occurred via western blot using the indicated antibodies.
The data presented here are consistent with the previous replicate in Hs578T cells. COMPOUND 7 reduces the phospho-S6/vinculin loading control ratio. Methods are the same as the previous replicate, using the indicated doses.
(§2) Hs578T cells (human triple negative breast cancer) were treated with the indicated concentration of COMPOUND 8 for 48 hours and then harvested. The “0” concentration is DMSO only (0.5%, same as was used for compound doses). […] Analysis occurred via western blot using the indicated antibodies.

PD-L1 [3] = test: Western blot of PD-L1 in Hs578T cells; type: cell-based, human; conditions: 48 hours, indicated concentrations of compound
Experimental: Hs578T cells (human triple negative breast cancer) were treated with the indicated concentration of COMPOUND 1 for 48 hours prior to harvesting. The “0” concentration is DMSO only (0.5%, same as was used for compound doses). […] Analysis occurred via western blot using the indicated antibodies. Quantification by densitometry of the bands from the western blot are presented for PD-L1/Vinculin (loading control) in the absence of interferon gamma, and glycosylated/non-glycosylated PD-L1 in the presence of interferon gamma.
as §1, with “increases PD-L1 levels and” for “reduces”, “glycosylated PD-L1/non-glycosylated PD-L1 ratio.” for “phospho-AKT/vinculin loading control and phospho-S6/total S6 ratios.”
Hs578T cells (human triple negative breast cancer) were treated with the indicated concentration of COMPOUND 6 for 48 hours before harvesting. The “0” concentration is DMSO only (0.5%, same as was used for compound doses). […] Analysis occurred via western blot using the indicated antibodies. PD-L1 protein levels were reduced relative to the vinculin loading control upon compound treatment. This effect is observed in the presence and absence of interferon gamma (IFN, 25 ng/mL in cell culture media during the drug treatment).
Hs578T cells (human triple negative breast cancer) were treated with the indicated concentration of COMPOUND 7 for 48 hours prior to harvesting. The “0” concentration is DMSO only (0.5%, same as was used for compound doses). […] Analysis occurred via western blot using the indicated antibodies. PD-L1 protein levels were reduced relative to the vinculin loading control upon 319-02 treatment.
The data presented here are consistent with the previous replicate in Hs578T cells. COMPOUND 7 reduces the PD-L1/vinculin loading control ratio. Methods are the same as the previous replicate, using the indicated doses.
as §2
PD-L1-APC (BD Biosciences) and a matched isotype control were used to visualize PD-L1 cell surface expression by flow cytometry (1:250 dilution). As shown by western blot, the knockdown of WWP1 yielded increased PD-L1 protein levels, including an increase in the glycosylated band.
Total RNA was isolated using an RNeasy kit from Qiagen.

SARS-CoV-2 = type: cell-based; conditions: Vero cells, 36 hours
PD-L1 [4] = test: Western blot of PD-L1 in multiple cancer cell lines after siRNA, shRNA or interferon gamma; type: cell-based, human; conditions: 25 ng/mL, 48 hours
Source text: Relative to the vinculin loading control, interferon gamma upregulates PD-L1 protein levels within TNBCs shown to express PD-L1 at baseline.
Analysis occurred via western blot using the indicated antibodies.

WWP1 [5] = test: Western blot of WWP1 protein levels after siRNA, shRNA, ASO or interferon gamma; conditions: A549 and Hs578T cells, 25 ng/mL, 48 hours
Protocol: Cells were treated with 10 nM pooled siRNA (IDT) and harvested 48 hours after. Cells were lysed in RIPA buffer containing protease and phosphatase inhibitors on ice.
Prior to harvesting, A549 and Hs578T cells were cultured for 48 hours in the presence or absence of interferon gamma (25 ng/mL in the cell culture media) or 10 nM pooled siRNA (IDT). Cells were lysed in RIPA buffer containing protease inhibitors on ice. Lysates were analyzed by western blot using the indicated antibodies.
Hs578T, BT-20 and A549 cells were cultured for 48 hours in the presence or absence of interferon gamma (25 ng/mL in the cell culture media), presence of absence of 10 nM pooled siRNA (IDT), or both. […] Lysates were analyzed by western blot using the indicated antibodies. […]
Cells were treated with 10 nM pooled siRNA for the indicated gene (IDT) and harvested 48 hours after (split for protein and RNA analysis). […] Lysates were analyzed by western blot using the indicated antibodies.
Cells were treated with 10 nM pooled siRNA for the indicated gene (IDT) and harvested after 48 hours. […] Lysates were analyzed by western blot using the indicated antibodies.
RNAiMax Lipofectamine (Thermo) was used as the transfection reagent at the manufacturer's recommended concentration. […] Western blots were used to quantify protein levels, using antibodies against Vinculin and WWP1.

WWP1 mRNA = test: qPCR of WWP1 mRNA in Du145 shRNA cell lines; conditions: vs empty vector control lines
Protocol: All shRNA constructs were introduced through lentiviral infection under puromycin selection. Cells were cultured for 48 hours in the presence or absence of interferon gamma (25 ng/mL in the cell culture media) at which time a fraction of cells was split for protein and mRNA evaluation. For protein, cells were lysed in RIPA buffer containing protease inhibitors on ice. Total RNA was isolated using the RNeasy kit from Qiagen, prior to reverse transcription to obtain cDNA.

T1 sequence (Q9H0M0 whole entry): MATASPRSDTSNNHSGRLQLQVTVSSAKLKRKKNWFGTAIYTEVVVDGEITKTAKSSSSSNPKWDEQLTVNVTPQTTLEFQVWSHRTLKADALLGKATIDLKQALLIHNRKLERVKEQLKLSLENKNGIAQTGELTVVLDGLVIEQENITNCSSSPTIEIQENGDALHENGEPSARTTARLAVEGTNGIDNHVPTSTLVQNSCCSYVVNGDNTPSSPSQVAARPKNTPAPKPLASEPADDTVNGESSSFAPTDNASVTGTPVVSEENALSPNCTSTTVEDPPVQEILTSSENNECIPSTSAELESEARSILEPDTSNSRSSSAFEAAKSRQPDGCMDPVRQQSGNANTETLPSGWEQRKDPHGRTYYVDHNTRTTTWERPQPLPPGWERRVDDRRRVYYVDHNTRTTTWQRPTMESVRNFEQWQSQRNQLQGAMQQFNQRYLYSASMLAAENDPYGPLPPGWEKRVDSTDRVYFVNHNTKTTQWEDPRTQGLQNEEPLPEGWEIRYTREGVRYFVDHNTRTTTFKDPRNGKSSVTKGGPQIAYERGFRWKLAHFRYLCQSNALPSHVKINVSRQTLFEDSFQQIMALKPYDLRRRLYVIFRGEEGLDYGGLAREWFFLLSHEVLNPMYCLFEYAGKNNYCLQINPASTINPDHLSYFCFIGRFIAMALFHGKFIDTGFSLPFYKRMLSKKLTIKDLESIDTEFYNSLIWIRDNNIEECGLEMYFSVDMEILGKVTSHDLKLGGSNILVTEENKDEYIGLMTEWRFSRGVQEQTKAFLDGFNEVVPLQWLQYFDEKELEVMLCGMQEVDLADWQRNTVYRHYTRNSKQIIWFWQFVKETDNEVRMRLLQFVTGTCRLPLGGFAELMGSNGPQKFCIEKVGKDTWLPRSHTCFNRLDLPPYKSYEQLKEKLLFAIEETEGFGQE

| Molecule | IC50 (WWP1 [1]) [µM] | IC50 (DU-145 cells) [µM] | other results |
| --- | --- | --- | --- |
| N#Cc1cc(NC(=O)c2ccc3c(c2)c(C=O)cn3-c2ccccc2)ccn1 [Compound 2, N-(2-cyanopyridin-4-yl)-3-formyl-1-phenyl-1H-indole-5-carboxamide] | 26 |  |  |
| O=C(O)c1ccc2[nH]cc(Cc3c[nH]c4ccccc34)c2c1 [Compound 3, 3-((1H-indol-3-yl)methyl)-1H-indole-5-carboxylic acid] | ~300 |  |  |
| O=C(O)c1ccc2c(Cc3c[nH]c4ccccc34)c[nH]c2c1 [Compound 4, 3-((1H-indol-3-yl)methyl)-1H-indole-6-carboxylic acid] | 29 | 0.08 |  |
| C#CCNC(=O)c1ccc2c(Cc3c[nH]c4ccccc34)c(C)[nH]c2c1 [Compound 5, 3-((1H-indol-3-yl)methyl)-2-methyl-N-(prop-2-yn-1-yl)-1H-indole-6-carboxamide] | 45 | 5.48 |  |
| Fc1cccc2[nH]cc(Cc3c[nH]c4cccc(F)c34)c12 [Compound 8, bis(4-fluoro-1H-indol-3-yl)methane] | 49 | 12 | S6 phosphorylation (relative to total S6 or vinculin loading control) [2]: reduced; PD-L1 levels (relative to vinculin loading control) (PD-L1 [3]): reduced |
| Fc1ccc2[nH]cc(Cc3c[nH]c4ccc(F)cc34)c2c1 [Compound 9, bis(5-fluoro-1H-indol-3-yl)methane] | 66 |  |  |
| OCc1c[nH]c2ccccc12 [Compound I3C, Indole-3-carbinol] |  |  | impact on SARS-CoV-2 infection (SARS-CoV-2; 2.5 μM): little impact on infection; inhibition of SARS-CoV-2 infection (SARS-CoV-2; 5 μM): > 75% |
| interferon gamma: interferon gamma, a stimulator of PD-L1 expression |  |  | induced PD-L1 expression (PD-L1 [4]; MCF-7 cells (ER+)): not readily observable; PD-L1 protein levels relative to vinculin (PD-L1 [4]; TNBCs (Hs578T, BT-20)): upregulates; WWP1 levels (WWP1 [5]): reduced; KD (reduction) of WWP1 mRNA by qPCR (WWP1 mRNA): 15% |
